Experimental data as given in patent US12036222B2, “Methods of treating cancers overexpressing CARM1 with EZH2 inhibitors and a PARP inhibitor” (The Wistar Institut of Anatomy and Biology, priority 2018, dated 2024).

What was measured:
[1] = system: tumors formed by CARM1 knockout A1847 cells; assay: Subcutaneous xenograft model, CARM1 knockout A1847 cells; type: in vivo, NSG mice; conditions: 50 mg/kg daily i.p.
Experimental: The protocols were approved by the Institutional Animal Care and Use Committee (IACUC). 5×10^6 control A1847 or A1847 CARM1 knockout cells were unilaterally injected subcutaneously into 6-8-week old female immunocompromised NSG mice (n=5 per group). One week after injection the mice were randomized and treated with vehicle control (20% captisol) or GSK126 (50 mg/kg daily). Tumor size was measured every 3 days for 3 weeks. At end of the experiments, tumors were surgically dissected and tumor burden was calculated based on tumor weight.
EZH2 inhibitors, such as GSK126, are used safely in clinical trials for hematopoietic malignancies (Ribrag et al. Eur J Cancer (2014) 50:197). To determine the effects of EZH2 inhibition in vivo on the growth of CARM1-expressing ovarian tumors, two xenograft models were utilized. In the subcutaneous xenograft models, the injected CARM1-expressing A1847 cells were first allowed to grow for one week to establish the tumors. Mice were then randomized and treated daily with vehicle control or GSK126 (50 mg/kg) by intraperitioneal (i.p.) injection as reported (see, e.g., Bitler et al. Nature Medicine (2015) 21:231-8 and McCabe et al. Nature (2012) 492:108-12). […] To more closely mimic the tumor microenvironment, A1847 cells were orthotopically transplanted into the bursa covering the ovary of immunocompromised NSG mice. […]

[2] = system: tumors formed by CARM1 knockout cells; assay: Immunohistochemistry and qRT-PCR of dissected CARM1 knockout tumors; type: in vivo, mice
Experimental: FIGS. 82 to 84 illustrate immunohistochemical analysis for serial sections of tumors dissected from mice injected with CARM1 knockout A1847 cells. Serial sections of tumors dissected from the indicated treatment groups described in FIGS. 73 to 75 were subjected to immunohistochemical staining for H3K27Me3, EZH2, cleaved caspase 3, and Ki67 (FIG. 82). Scale bar=50 μm. Histological score (H-score) of the indicated proteins was calculated for 3 separate fields from 5 tumors from 5 individual mice from each of the indicated groups (FIG. 83). Expression of the indicated EZH2/BAF155 target genes was determined by qRT-PCR in the tumors dissected from the indicated treatment groups (FIG. 84).
(§1) The observed tumor growth suppression in vivo was correlated with the molecular pathways underlying the CARM1-dependent effects of EZH2 inhibition. To do so, immunohistochemical (IHC) analysis was performed for markers of cell proliferation (Ki67), apoptosis (cleaved caspase 3), H3K27Me3 and EZH2. […] Finally, the observed decrease in cell proliferation and increase in apoptosis correlated with the upregulation of the identified CARM1-regulated EZH2/BAF155 target genes such as DAB2, DLC1 and NOXA by the EZH2 inhibitor GSK126 in vivo (FIG. 81).

CARM1-expressing tumors = assay: Immunohistochemistry and qRT-PCR of dissected CARM1-expressing tumors; type: in vivo, mice
Experimental: FIG. 79 illustrates immunohistochemical analysis for serial sections of tumors dissected from the indicated treatment groups where the tumor sections were stained for H3K27Me3, EZH2, cleaved caspase 3, and Ki67. Scale bar=50 μm.
FIG. 80 illustrates histological scoring (H-score) of the indicated proteins that was calculated for 3 separate fields from 5 tumors from 5 individual mice from each of the indicated groups.
FIG. 81 illustrates the expression of the indicated EZH2/BAF155 target genes that was determined by qRT-PCR in the tumors dissected from the indicated treatment groups.
as §1

BAF155Me = assay: Immunoblot for BAF155Me levels; type: cell-based, human; conditions: 10 μM GSK126, 7 days
Experimental: FIG. 53 illustrates that the indicated CARM1-high cells were infected with the indicated shCARM1 or controls. Expression of CARM1 and BAF155Me levels and loading control (p-actin) was determined by immunoblot. FIG. 54 illustrates that the indicated cells were treated with 10 μM GSK126 or vehicle control for 7 days. Expression of BAF155 and a loading control (0-actin) was determined by immunoblot.

[3] = system: CARM1-low EOC cells such as CAOV3 and PEO1; assay: Colony formation assay in CARM1-low EOC cells; type: cell-based, human; conditions: 10 μM GSK126
Experimental: FIG. 33 illustrates relative growth of the indicated HOSE, FTE, and EOC cancer cell lines with high or low CARM1 expression treated with 10 μM GSK126 or vehicle in a colony formation assay as determined by NIH Image J quantification.
500 to 5,000 cell were plated into a 24 well tissue culture plate and treated with the indicated compounds. Medium was changed every three days with appropriate drug doses for 12 days or until control wells became confluent. Colonies were washed twice with PBS and fixed with 10% methanol and 10% acetic acid in distilled water. Fixed colonies were stained with 0.005% crystal violet. Integrated density was measured using NIH ImageJ software.

TIMP3 = assay: qRT-PCR of BAF155Me target gene in cells; type: cell-based, human; conditions: parental and CARM1 knockout A1847 cells, 10 μM GSK126
Experimental: FIG. 57 illustrates the relative mRNA expression of BAF155Me target gene TIMP3, which was determined by qRT-PCR. Parental control and CARM1 knockout A1847 cells were treated with 10 μM GSK126 or vehicle controls. *p<0.001. Mean of three independent experiments with SEM.
RNA was isolated by RNeasy Mini Kit (Qiagen). mRNA relative expression for DAB2, DLC1, and PMAIP was determined using SYBR green 1-step iScript (Bio-Rad) with a Life Technologies QuantStudio 3. The primers were: 5′-[…]-3′ (DAB2 forward (SEQ ID NO: 2)) and 5′-[…]-3′ (DAB2 reverse (SEQ ID NO: 3)); 5′-[…]-3′ (DLC1 forward (SEQ ID NO: 4)) and 5′-[…]-3′ (DLC1 reverse (SEQ ID NO: 5)); 5′-[…]-3′ (NOXA forward (SEQ ID NO: 6)) and 5′-[…]-3′ (NOXA reverse (SEQ ID NO: 7)); and 5′-[…]-3′ (TIMP3 forward (SEQ ID NO: 8)) and 5′-[…]-3′ (TIMP3 reverse (SEQ ID NO: 9)).

Compound: CC[C@H](C)n1cc(C)c2c(C(=O)NCc3c(C)cc(C)[nH]c3=O)cc(-c3ccc(N4CCNCC4)nc3)cc21 [GSK126, (S)-1-(sec-butyl)-N-((4,6-dimethyl-2-oxo-1,2-dihydropyridin-3-yl)methyl)-3-methyl-6-(6-(piperazin-1-yl)pyridin-3-yl)-1H-indole-4-carboxamide]
- growth of tumors formed by CARM1 knockout A1847 cells [1]: failed to inhibit the growth
- H3K27Me3 ([2]; IHC): reduction of H3K27Me3
- expression of Ki67 ([2]; IHC): did not affect the expression
- expression of cleaved caspase 3 ([2]; IHC): did not affect the expression
- expression of CARM1 regulated EZH2/BAF155 target genes ([2]; qRT-PCR): did not increase the expression
- EZH2 staining (CARM1-expressing tumors; IHC): did not affect EZH2 staining
- H3K27Me3 staining (CARM1-expressing tumors; IHC): decreased
- expression of Ki67 (CARM1-expressing tumors; IHC): decreased the expression of Ki67
- expression of cleaved caspase 3 (CARM1-expressing tumors; IHC): increased the expression of cleaved caspase 3
- expression of EZH2/BAF155 target genes DAB2, DLC1 and NOXA in vivo (CARM1-expressing tumors; qRT-PCR): upregulation
- BAF155Me levels (BAF155Me): did not affect BAF155Me levels
- response of CARM1-low EOC cells [3]: did not respond
- expression of BAF155Me target gene TIMP3 (TIMP3): downregulated by CARM KO but not by EZH2 inhibitor GSK126
